As usually defined, the Ki is a measure of affinity in units of concentration, obtained from inhibition or displacement. Read a low Ki as tighter binding.

One experiment has as its target Coagulation factor X (Homo sapiens, UniProt P00742). Nature of the experiment: In vitro binding affinity for human Coagulation factor X.
For the next experiment, the target named is Serine protease 1 (Homo sapiens, UniProt P07477). The experiment in a line: Binding affinity towards trypsin.
For the next experiment, the target named is Prothrombin (Homo sapiens, UniProt P00734). The experiment in a line: Binding affinity towards thrombin.

Coagulation factor X, sequence (P00742 41-179 limits assumed): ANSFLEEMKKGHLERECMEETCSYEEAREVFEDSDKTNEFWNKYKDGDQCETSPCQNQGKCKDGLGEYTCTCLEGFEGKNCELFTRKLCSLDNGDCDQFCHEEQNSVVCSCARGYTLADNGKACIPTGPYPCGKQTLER
Coagulation factor X, sequence (P00742 235-488 limits assumed): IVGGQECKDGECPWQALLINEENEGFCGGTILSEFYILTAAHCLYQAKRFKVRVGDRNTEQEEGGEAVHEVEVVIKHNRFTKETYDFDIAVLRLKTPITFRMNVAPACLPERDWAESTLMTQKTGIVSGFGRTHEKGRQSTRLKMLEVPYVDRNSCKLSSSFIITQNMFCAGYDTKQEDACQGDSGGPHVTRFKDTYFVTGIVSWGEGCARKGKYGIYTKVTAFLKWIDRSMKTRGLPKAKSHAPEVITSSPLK
Serine protease 1, sequence (P07477 whole entry): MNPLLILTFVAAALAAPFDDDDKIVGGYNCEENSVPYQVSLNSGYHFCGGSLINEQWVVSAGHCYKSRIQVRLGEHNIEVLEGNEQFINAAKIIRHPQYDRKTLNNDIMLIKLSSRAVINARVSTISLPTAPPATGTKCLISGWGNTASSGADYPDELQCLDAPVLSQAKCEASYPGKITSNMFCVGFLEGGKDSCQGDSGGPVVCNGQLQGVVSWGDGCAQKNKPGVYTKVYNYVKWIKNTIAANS

Turning to `O=C1CN(S(=O)(=O)c2cc3cccnc3s2)CCN1Cc1cc2cnccc2[nH]1` [1-(1H-Pyrrolo[3,2-c]pyridin-2-ylmethyl)-4-(thieno[2,3-b]pyridine-2-sulfonyl)-piperazin-2-one], at Coagulation factor X, the Ki is above 1200 nM. The compound `O=C1CN(S(=O)(=O)c2cc3ncccc3s2)CCN1Cc1cc2cnccc2[nH]1` [1-(1H-Pyrrolo[3,2-c]pyridin-2-ylmethyl)-4-(thieno[3,2-b]pyridine-2-sulfonyl)-piperazin-2-one] returned a Ki on Coagulation factor X above 1200 nM. In the case of `O=C1CN(S(=O)(=O)c2cc3ccc(Cl)cc3s2)CCN1Cc1cc2c(=O)[nH]ccc2[nH]1` [2-[4-(6-Chloro-benzo[b]thiophene-2-sulfonyl)-2-oxo-piperazin-1-ylmethyl]-1,5-dihydro-pyrrolo[3,2-c]pyridin-4-one], the Ki at Coagulation factor X is above 1200 nM; on Serine protease 1 it was above 2900 nM; on Prothrombin, above 3900 nM. Compound `O=C1CN(S(=O)(=O)c2sc3ccccc3c2Cl)CCN1Cc1cc2cnccc2[nH]1` [4-(3-Chloro-benzo[b]thiophene-2-sulfonyl)-1-(1H-pyrrolo[3,2-c]pyridin-2-ylmethyl)-piperazin-2-one] came in with a Ki on Coagulation factor X above 1200 nM. `O=C1CN(S(=O)(=O)c2ccc(-c3ccc(Cl)cc3)cc2)CCN1Cc1cc2cnccc2[nH]1` [4-(4'-Chloro-biphenyl-4-sulfonyl)-1-(1H-pyrrolo[3,2-c]pyridin-2-ylmethyl)-piperazin-2-one]: the Ki at Coagulation factor X is above 1200 nM. For `O=C1CN(S(=O)(=O)c2cc3ccc(Cl)cc3s2)CCN1Cc1nc2ccncc2[nH]1` [4-(6-Chloro-benzo[b]thiophene-2-sulfonyl)-1-(1H-imidazo[4,5-c]pyridin-2-ylmethyl)-piperazin-2-one], the Ki on Coagulation factor X is above 1200 nM; on Serine protease 1, above 2900 nM; at Prothrombin, above 3900 nM. With `O=C1CN(S(=O)(=O)c2cc3ccc(Cl)cc3s2)CCN1Cc1cc2ncccc2[nH]1` [4-(6-Chloro-benzo[b]thiophene-2-sulfonyl)-1-(1H-pyrrolo[3,2-b]pyridin-2-ylmethyl)-piperazin-2-one], the values for the Ki at Coagulation factor X, on Serine protease 1 and on Prothrombin were above 1200 nM, above 2900 nM and above 3900 nM, respectively. `COc1cc(C=CS(=O)(=O)N2CCN(Cc3cc4cnccc4[nH]3)C(=O)C2)sc1Cl` [4-[2-(5-Chloro-4-methoxy-thiophen-2-yl)-ethenesulfonyl]-1-(1H-pyrrolo[3,2-c]pyridin-2-ylmethyl)-piperazin-2-one] registered a Ki at Coagulation factor X above 1200 nM.

(Values after BindingDB's records for doi:10.1021/jm020384z (Aventis Pharmaceuticals, 2003).)
